Source: US11339419B2, “Scavenger protein(s) for improved preservation of analyte detection sensor(s) and method(s) of use thereof” (Siemens Healthcare Diagnostics Inc., priority 2017, dated 2022)
“And” between values parts separate entries of the source, which are not always exact repeats. Equal entries are not always repeated.

What was measured:
[1] = tested on: sarcosine oxidase (Toyobo); experiment: Toyobo Sarcosine Oxidase Enzyme Absorbance with BSA and MIT; type: biochemical; details: for Sarcosine Oxidase Enzyme Absorbance, MEAN of 7-11 / Sarcosine Oxidase Enzyme Absorbance, replicates 7-11 / Sarcosine Oxidase Enzyme Absorbance, MEAN of 1-5 / Sarcosine Oxidase Enzyme Absorbance, solutions 1-5: 37° C.
Method: (§1) Tables 1-4 depict aqueous solutions comprising varying concentrations of BSA (at concentrations of 0 mg/mL, 5 mg/mL, 25 mg/mL, and 50 mg/mL), varying concentrations of MIT (at concentrations of 50 parts per million and 100 parts per million) or Proclin™ 300 (at concentrations of 0.7% and 1.4%) biocides over a particular time period (measurements were taken at days 0, 4, and 14 after exposure of the enzyme(s) to the aqueous solutions) and the associated enzyme absorbance measurements for sarcosine oxidase (commercially offered for sale by BBI Solutions and Toyobo). Absorbance measurements of the sarcosine oxidase enzyme(s) were taken via spectrophotometer for each aqueous solution (represented as columns 1-5 in Tables 1-4—column 6 is a blank), the absorbance being directly proportional to the enzyme activity being measured-which for Tables 1-4 is sarcosine oxidase enzyme activity. Accordingly, the higher the absorbance measurement, the higher the enzyme activity of sarcosine oxidase. Columns 7-11 represent five replicate readings in which the aqueous solution only contains BSA (i.e., there is no biocide(s) present in the aqueous solution). In addition, the mean values, standard deviations, and coefficients of variation are also presented for the enzyme activity/absorbance of each aqueous solution. All measurements were taken at 37° C.
As depicted below in Table 2, sarcosine oxidase (commercially offered for sale by Toyobo) enzyme activity is measured against various concentrations of MIT (biocide) and BSA (scavenger protein) over a period of 14 days (with absorbance measurements taken at 0, 4, and 14 days) for five different aqueous solutions (represented as columns 1-5-column 6 is a blank).

[2] = tested on: sarcosine oxidase (BBI Solutions); experiment: BBI Solutions Sarcosine Oxidase Enzyme Absorbance with BSA and MIT; type: biochemical; details: Day 0; 5 mg/mL BSA only, no MIT (50 ppm MIT row); 37° C.
Method: as §1
As depicted below in Table 1, sarcosine oxidase (commercially offered for sale by BBI Solutions) enzyme activity is measured against various concentrations of MIT (biocide) and BSA (scavenger protein) over a period of 14 days (with absorbance measurements taken at 0, 4, and 14 days) for five different aqueous solutions (represented as columns 1-5—column 6 is a blank).

[3] = Day 0, 5 mg/mL BSA only, no MIT (50 ppm MIT row)
[4] = Day 0, 5 mg/mL BSA only, no MIT (100 ppm MIT row)
[5] = Day 0, 25 mg/mL BSA only, no MIT (50 ppm MIT row)
[6] = Day 0, 25 mg/mL BSA only, no MIT (100 ppm MIT row)
[7] = Day 0, 50 mg/mL BSA only, no MIT (50 ppm MIT row)
[8] = Day 0, 50 mg/mL BSA only, no MIT (100 ppm MIT row)
[9] = Day 0, 50 ppm MIT, 25 mg/mL BSA
[10] = Day 0, 50 ppm MIT, 50 mg/mL BSA
[11] = Day 4, 5 mg/mL BSA only, no MIT (50 ppm MIT row)
[12] = Day 4, 5 mg/mL BSA only, no MIT (100 ppm MIT row)
[13] = Day 4, 25 mg/mL BSA only, no MIT (50 ppm MIT row)
[14] = Day 4, 25 mg/mL BSA only, no MIT (100 ppm MIT row)
[15] = Day 4, 50 mg/mL BSA only, no MIT (50 ppm MIT row)
[16] = Day 4, 50 mg/mL BSA only, no MIT (100 ppm MIT row)
[17] = Day 14, 5 mg/mL BSA only, no MIT (50 ppm MIT row)
[18] = Day 14, 5 mg/mL BSA only, no MIT (100 ppm MIT row)
[19] = Day 14, 25 mg/mL BSA only, no MIT (50 ppm MIT row)
[20] = Day 14, 25 mg/mL BSA only, no MIT (100 ppm MIT row)
[21] = Day 14, 50 mg/mL BSA only, no MIT (50 ppm MIT row)
[22] = Day 14, 50 mg/mL BSA only, no MIT (100 ppm MIT row)

bovine serum albumin [BSA]
Sarcosine Oxidase Enzyme Absorbance, MEAN of 7-11 [1, 3]: 1.41
Sarcosine Oxidase Enzyme Absorbance, replicates 7-11 [1, 3]: 1.444 and 1.45 and 1.459 and 1.485 and 1.463
Sarcosine Oxidase Enzyme Absorbance, MEAN of 7-11 [1, 4]: 1.39
Sarcosine Oxidase Enzyme Absorbance, replicates 7-11 [1, 4]: 1.459 and 1.421 and 1.427 and 1.439 and 1.436
Sarcosine Oxidase Enzyme Absorbance, MEAN of 7-11 [1, 5]: 1.40
Sarcosine Oxidase Enzyme Absorbance, replicates 7-11 [1, 5]: 1.448 and 1.453 and 1.45 and 1.442 and 1.444
Sarcosine Oxidase Enzyme Absorbance, MEAN of 7-11 [1, 6]: 1.38
Sarcosine Oxidase Enzyme Absorbance, replicates 7-11 [1, 6]: 1.447 and 1.422 and 1.418 and 1.443 and 1.413
Sarcosine Oxidase Enzyme Absorbance, MEAN of 7-11 [1, 7]: 1.35
Sarcosine Oxidase Enzyme Absorbance, replicates 7-11 [1, 7]: 1.387 and 1.402 and 1.388 and 1.408 and 1.406
Sarcosine Oxidase Enzyme Absorbance, MEAN of 7-11 [1, 8]: 1.38
Sarcosine Oxidase Enzyme Absorbance, replicates 7-11 [1, 8]: 1.437 and 1.434 and 1.424 and 1.423 and 1.416
% Bias ([1]; Day 0, 50 ppm MIT vs no MIT, 5 mg/mL BSA): −0.3%
% Bias ([1]; Day 0, 50 ppm MIT vs no MIT, 25 mg/mL BSA): −1.0%
% Bias ([1]; Day 0, 50 ppm MIT vs no MIT, 50 mg/mL BSA): 2.4%
Sarcosine Oxidase Enzyme Absorbance, MEAN of 1-5 ([1]; Day 0, 50 ppm MIT, 5 mg/mL BSA): 1.41
Sarcosine Oxidase Enzyme Absorbance, solutions 1-5 ([1]; Day 0, 50 ppm MIT, 5 mg/mL BSA): 1.445 and 1.446 and 1.443 and 1.456 and 1.457
Sarcosine Oxidase Enzyme Absorbance, MEAN of 1-5 [1, 9]: 1.39
Sarcosine Oxidase Enzyme Absorbance, solutions 1-5 [1, 9]: 1.432 and 1.423 and 1.425 and 1.431 and 1.427
Sarcosine Oxidase Enzyme Absorbance, MEAN of 1-5 [1, 10]: 1.39
Sarcosine Oxidase Enzyme Absorbance, solutions 1-5 [1, 10]: 1.439 and 1.435 and 1.441
% Bias ([1]; Day 0, 100 ppm MIT vs no MIT, 5 mg/mL BSA): 0.3%
% Bias ([1]; Day 0, 100 ppm MIT vs no MIT, 25 mg/mL BSA): −0.7%
% Bias ([1]; Day 0, 100 ppm MIT vs no MIT, 50 mg/mL BSA): −1.1%
Sarcosine Oxidase Enzyme Absorbance, MEAN of 1-5 ([1]; Day 0, 100 ppm MIT, 5 mg/mL BSA): 1.39
Sarcosine Oxidase Enzyme Absorbance, MEAN of 1-5 ([1]; Day 0, 100 ppm MIT, 25 mg/mL BSA): 1.37
Sarcosine Oxidase Enzyme Absorbance, MEAN of 1-5 ([1]; Day 0, 100 ppm MIT, 50 mg/mL BSA): 1.37
Sarcosine Oxidase Enzyme Absorbance, MEAN of 7-11 [1, 11]: 0.10
Sarcosine Oxidase Enzyme Absorbance, replicates 7-11 [1, 11]: 0.251 and 0.247 and 0.255 and 0.261 and 0.267
Sarcosine Oxidase Enzyme Absorbance, MEAN of 7-11 [1, 12]: 0.79
Sarcosine Oxidase Enzyme Absorbance, replicates 7-11 [1, 12]: 0.933 and 0.941 and 0.967 and 0.963
Sarcosine Oxidase Enzyme Absorbance, MEAN of 7-11 [1, 13]: 1.22
Sarcosine Oxidase Enzyme Absorbance, replicates 7-11 [1, 13]: 1.388 and 1.399 and 1.382 and 1.357 and 1.362
Sarcosine Oxidase Enzyme Absorbance, MEAN of 7-11 [1, 14]: 1.23
Sarcosine Oxidase Enzyme Absorbance, replicates 7-11 [1, 14]: 1.366 and 1.381 and 1.402 and 1.382 and 1.388
Sarcosine Oxidase Enzyme Absorbance, MEAN of 7-11 [1, 15]: 1.24
Sarcosine Oxidase Enzyme Absorbance, replicates 7-11 [1, 15]: 1.386 and 1.428 and 1.403 and 1.415 and 1.372
Sarcosine Oxidase Enzyme Absorbance, MEAN of 7-11 [1, 16]: 1.24
Sarcosine Oxidase Enzyme Absorbance, replicates 7-11 [1, 16]: 1.384 and 1.407 and 1.4 and 1.389 and 1.388
% Bias ([1]; Day 4, 50 ppm MIT vs no MIT, 5 mg/mL BSA): 775.9%
% Bias ([1]; Day 4, 50 ppm MIT vs no MIT, 25 mg/mL BSA): 11.9%
% Bias ([1]; Day 4, 50 ppm MIT vs no MIT, 50 mg/mL BSA): 12.4%
Sarcosine Oxidase Enzyme Absorbance, MEAN of 1-5 ([1]; Day 4, 50 ppm MIT, 5 mg/mL BSA): 0.86
Sarcosine Oxidase Enzyme Absorbance, MEAN of 1-5 ([1]; Day 4, 50 ppm MIT, 25 mg/mL BSA): 1.37
Sarcosine Oxidase Enzyme Absorbance, MEAN of 1-5 ([1]; Day 4, 50 ppm MIT, 50 mg/mL BSA): 1.40
% Bias ([1]; Day 4, 100 ppm MIT vs no MIT, 5 mg/mL BSA): 16.5%
% Bias ([1]; Day 4, 100 ppm MIT vs no MIT, 25 mg/mL BSA): 10.4%
% Bias ([1]; Day 4, 100 ppm MIT vs no MIT, 50 mg/mL BSA): 11.1%
Sarcosine Oxidase Enzyme Absorbance, MEAN of 1-5 ([1]; Day 4, 100 ppm MIT, 5 mg/mL BSA): 0.92
Sarcosine Oxidase Enzyme Absorbance, MEAN of 1-5 ([1]; Day 4, 100 ppm MIT, 25 mg/mL BSA): 1.35
Sarcosine Oxidase Enzyme Absorbance, MEAN of 1-5 ([1]; Day 4, 100 ppm MIT, 50 mg/mL BSA): 1.37
Sarcosine Oxidase Enzyme Absorbance, MEAN of 7-11 [1, 17]: 0.29
Sarcosine Oxidase Enzyme Absorbance, replicates 7-11 [1, 17]: 0.329 and 0.33 and 0.348 and 0.327 and 0.333
Sarcosine Oxidase Enzyme Absorbance, MEAN of 7-11 [1, 18]: 0.31
Sarcosine Oxidase Enzyme Absorbance, replicates 7-11 [1, 18]: 0.342 and 0.353 and 0.351 and 0.382 and 0.368
Sarcosine Oxidase Enzyme Absorbance, MEAN of 7-11 [1, 19]: 1.36
Sarcosine Oxidase Enzyme Absorbance, replicates 7-11 [1, 19]: 1.406 and 1.41 and 1.429 and 1.404 and 1.403
Sarcosine Oxidase Enzyme Absorbance, MEAN of 7-11 [1, 20]: 1.41
Sarcosine Oxidase Enzyme Absorbance, replicates 7-11 [1, 20]: 1.443 and 1.445 and 1.46 and 1.471 and 1.461
Sarcosine Oxidase Enzyme Absorbance, MEAN of 7-11 [1, 21]: 1.41
Sarcosine Oxidase Enzyme Absorbance, replicates 7-11 [1, 21]: 1.436 and 1.456 and 1.449 and 1.465 and 1.488
Sarcosine Oxidase Enzyme Absorbance, MEAN of 7-11 [1, 22]: 1.42
Sarcosine Oxidase Enzyme Absorbance, replicates 7-11 [1, 22]: 1.476 and 1.446 and 1.464 and 1.474 and 1.469
% Bias ([1]; Day 14, 50 ppm MIT vs no MIT, 5 mg/mL BSA): 0.3%
% Bias ([1]; Day 14, 50 ppm MIT vs no MIT, 25 mg/mL BSA): 1.6%
% Bias ([1]; Day 14, 50 ppm MIT vs no MIT, 50 mg/mL BSA): 0.7%
Sarcosine Oxidase Enzyme Absorbance, MEAN of 1-5 ([1]; Day 14, 50 ppm MIT, 5 mg/mL BSA): 0.29
Sarcosine Oxidase Enzyme Absorbance, MEAN of 1-5 ([1]; Day 14, 50 ppm MIT, 25 mg/mL BSA): 1.39
Sarcosine Oxidase Enzyme Absorbance, MEAN of 1-5 ([1]; Day 14, 50 ppm MIT, 50 mg/mL BSA): 1.42
% Bias ([1]; Day 14, 100 ppm MIT vs no MIT, 5 mg/mL BSA): −0.8%
% Bias ([1]; Day 14, 100 ppm MIT vs no MIT, 25 mg/mL BSA): −0.1%
% Bias ([1]; Day 14, 100 ppm MIT vs no MIT, 50 mg/mL BSA): 0.2%
Sarcosine Oxidase Enzyme Absorbance, MEAN of 1-5 ([1]; Day 14, 100 ppm MIT, 5 mg/mL BSA): 0.31
Sarcosine Oxidase Enzyme Absorbance, MEAN of 1-5 ([1]; Day 14, 100 ppm MIT, 25 mg/mL BSA): 1.41
Sarcosine Oxidase Enzyme Absorbance, MEAN of 1-5 ([1]; Day 14, 100 ppm MIT, 50 mg/mL BSA): 1.42
absorbance of the sarcosine oxidase enzyme compared to samples containing 0 mg/mL of BSA ([1]; days 4 and 14, 5, 25 and 50 mg/mL BSA, with MIT): increased absorbance
sarcosine oxidase absorbance, solutions 7-11 ([1]; days 4 and 14, only BSA, no MIT): increased (or at least maintained)
Sarcosine Oxidase Enzyme Absorbance, MEAN of 7-11 [2]: 1.39
